BindingDB's records for doi:10.3109/14756366.2013.823958 (Birla Institute of Technology, 2014)

Biological target: T1, Secreted chorismate mutase (Mycobacterium tuberculosis (strain ATCC 25618 / H37Rv), UniProt P9WIB9)
T1 sequence (P9WIB9 whole entry): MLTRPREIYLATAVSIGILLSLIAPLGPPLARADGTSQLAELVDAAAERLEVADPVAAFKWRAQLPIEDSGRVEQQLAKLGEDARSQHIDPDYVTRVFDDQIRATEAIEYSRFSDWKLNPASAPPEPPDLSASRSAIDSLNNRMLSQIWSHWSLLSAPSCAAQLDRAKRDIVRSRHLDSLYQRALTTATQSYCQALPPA
Test: CM Assay
Conditions: pH 7.5; 37 °C
Experimental: Reaction volumes of 0.4 mL of chorismate (typically, 1 mM) in 50 mM Tris-HCl (pH 7.5), 0.5 mM EDTA, 0.1 mg/mL bovine serum albumin, and 10 mM β-mercaptoethanol were incubated at 37 °C for 5 min. The reaction was started with 5 pmol of MTB CM in a 10-μl volume (i.e. 185 ng of MTB CM equivalent toa 12.5nM final concentration of the dimer based on the molecular mass of 36 948 Da). The reaction was allowed to proceed at 37 °C and was terminated after 1 min to 5 min with 0.4 ml of 1N HCl. After a further incubation at 37 °C for 10 min to convert prephenate, which is formed in the enzymatic reaction, tophenylpyruvate, 0.8 ml of 2.5N NaOH was added. The absorbance of the phenylpyruvate chromophore was read at 320 nm. We set up a blank with no enzyme for every reaction to account for the non-enzymatic conversion of chorismate to prephenate and added the enzyme after NaOH addition. The A320 for the blank varied from 0.1 to 0.3, depending on the concentration of chorismate and duration of the reaction. Each reaction was carried out in triplicates.

| SMILES | IC50 |
| --- | --- |
| Cc1ccc(C(C)C)cc1O | 1.06 µM |
| C=CCc1ccc(O)c(OC)c1 [2-methoxy-4-(prop-2-en-1-yl)phenol4-allyl-2-methoxyphenol] | 28.6 µM |
| COc1cc(C=O)ccc1O [4-hydroxy-3-methoxybenzaldehyde] | 24.8 µM |
| Cc1ccc(C(C)C)c(O)c1 [5-methyl-2-(propan-2-yl)phenol] | 28.4 µM |
| C=C(C)C1CCC(C)CC1O (stereo not drawn) [(±)Neo isopulegol] | 13.6 µM |
| Cc1cc(O)cc(C(C)C)c1 [Carvacrol derivative, 7] | 26.8 µM |
| Cc1ccc(C(C)C)cc1 [Carvacrol derivative, 8] | 11.6 µM |
| Cc1ccccc1O [Carvacrol derivative, 9] | 23.1 µM |
| CC(C)c1cccc(O)c1 [Carvacrol derivative, 10] | 21.4 µM |
| Cc1cc(Cl)c(C(C)C)cc1O [Carvacrol derivative, 15] | 13.7 µM |
| CC1CCC(C(C)C)C(O)C1 (stereo not drawn) [Menthol] | 26.4 µM |
| CC(=O)Oc1cc(C)ccc1C(C)C [Thymol derivative, 17] | 4.08 µM |
| COc1cc(C)ccc1C(C)C [Thymol derivative, 21] | 21.6 µM |
